In patent US20030237103A1, “Methods and compositions for pharmacological and toxicological evaluation of test agents” (priority 2002, published 2003):

Key:
[1] = tested on: rat liver peroxisomal fatty-acyl CoA oxidase; assay: Fluorometric assay of liver peroxisomal fatty-acyl CoA oxidase (FAO) activity after clofibrate; type: in vivo; settings: CD-IGS rats
Procedure: Peroxisomal fractions from livers of each strain were measured for FAO activity. In order to account for intra-strain variability, graphed are the average values derived by subtracting the vehicle FAO (average) from each individual drug induced FAO. The y-axis represents the FAO activity (nmol H2O2 per minute-mg peroximal protein).
The assay was done by using a fluorometric assay for rat liver peroxisomal fafty-acyl CoA oxidase activity (FAO). The first step of this assay uses a palmitoyl-CoA dependent NAD+ reducing system to oxidize FAO and produce H2O2. The H2O2 is then coupled in a peroxidase catalyzed reaction to the oxidation of scopoletin, a naturally fluorescent compound. A fall in fluorescence of the sample indicates an increase in FAO activity which subsequently reflects the increase in the fatty acid oxidase in the liver.
Six clofibrate samples and four vehicle samples were individually tested for FAO activity in duplicate tests. Using an H2O2 standard curve enables the change in fluorescence to be converted to FAO activity units (Walusimbi-Kisitu, M. and E. H. Harrison, J. Lipid Res. 24(8):1077-1084, 1983).

[2] = tested on: Panel, CD-IGS and parental rat strains; settings: in vivo, 250 mg/kg
Procedure: Alanine transferase (ALT) levels in plasma an index of liver damage were measured in outbred and inbred strains (top panel) and the Panel F1 hybrids (bottom panel) following euthanasia on day 7. Plotted are the average ALT values for drug (left) and vehicle (right) within a particular drug treatment group (designated by strain). The number of animals tested in each group is denoted below the strain designation in parenthesis as # drug treated animas/#vehicle treated animals.
We delivered the clofibrate orally by gavage (250 mg/Kg in hydroxyproply methyl cellulose) to the rats on 6 consecutive days.

[3] = tested on: Panel, CD-IGS and parental rat strains; assay: Liver histology after clofibrate; type: in vivo
Description: Hypolipidemic drugs, such as clofibrate, commonly induce peroxisomal proliferation and an increase in the activity of peroxisomal beta-oxidation pathway. We looked for these changes in our rats by histological analysis of a section of the left lateral lobe from livers of either clofibrate or vehicle treated rats. While we could detect cellular differences (e.g. hepatocelluar hypertrophy, hepatocellular vacuolization, anisokaryosis and portal lymphocytic infiltrates) among the clofibrate treated livers versus the vehicle controls within any strain.

[4] = tested on: Panel, CD-IGS and parental rat strains; assay: Plasma triglyceride lowering by clofibrate; type: in vivo; settings: between WKY×LEW, WKY×BN and WKY×F344; 250 mg/Kg
Procedure: Triglyceride levels in plasma were measured following euthanasia on day 7. Plotted are the percent differences in triglyceride values in a particular drug treatment group.

For `CCOC(=O)C(C)(C)Oc1ccc(Cl)cc1` [clofibrate], which “hepatotoxic effects relative to other strains (FAO activity)” value [1] is on record?
Its value is “resistant”.

And the “AST levels (predictor of liver toxicity)” value [2]?
The value was “not significantly affected”.

And the liver hypertrophy ([3]; all the strains)?
The liver hypertrophy was “hypertrophy of the liver”.

And the “histopathology differences between the strains within the Panel” value ([3]; left lateral lobe sections, clofibrate vs. vehicle)?
The value was “no quantitative differences”.

What about the “variation in magnitude of the fall in plasma triglyceride levels” value [4] of the same molecule?
Its value is 3 fold.
